Among the data in patent US20080269170A1, “Novel 2,4-Dianilinopyrimidine Derivatives, the Preparation Thereof, Their Use as Medicaments, Pharmaceutical Compositions and, in Particular, as IKK Inhibitors” (sanofi-aventis, priority 2005, published 2008) are melting point values, retold here.

As to `CSCCNC1CCC(N(C)S(=O)(=O)c2ccc(Nc3nccc(Nc4ccc(F)cc4)n3)cc2)CC1` (stereo not drawn) [Example 144, 4-({4-[(4-Fluorophenyl)amino]pyrimidin-2-yl}amino)-N-methyl-N-[4-cis(2-methylsulfanylethyl-amino)cyclohexyl]benzenesulfonamide], the melting point worked out at 146 °C.

For `CSCCNC1CCC(N(C)S(=O)(=O)c2ccc(Nc3nccc(Nc4ccc(F)cc4)n3)cc2)CC1` (stereo not drawn) [Example 145, 4-({4-[(4-Fluorophenyl)amino]pyrimidin-2-yl}amino)-N-methyl-N-[4-trans(2-methylsulfanylethyl-amino)cyclohexyl]benzenesulfonamide], the melting point came to 171 °C.

The compound `CNC1CCC(N(CCN2CCCC2)S(=O)(=O)c2ccc(Nc3nccc(Nc4ccc(F)cc4)n3)cc2)CC1` (stereo not drawn) [Example 146, 4-({4-[(4-Fluorophenyl)amino]pyrimidin-2-yl}amino)-N-(4-cis(methylamino)cyclohexyl)-N-(2-pyrrolidin-1-ylethyl)benzenesulfonamide] displayed a melting point of 189 °C.

Compound `CNC1CCC(N(CCN2CCCC2)S(=O)(=O)c2ccc(Nc3nccc(Nc4ccc(F)cc4)n3)cc2)CC1` (stereo not drawn) [Example 147, 4-({4-[(4-Fluorophenyl)amino]pyrimidin-2-yl}amino)-N-(4-trans(methylamino)cyclohexyl)-N-(2-pyr-rolidin-1-ylethyl)benzenesulfonamide] came in with a melting point of 128 °C.

In turn, `C#CCN(C1CCN(C)CC1)S(=O)(=O)c1ccc(Nc2nccc(Nc3ccc(F)cc3)n2)cc1` [Example 148, 4-({4-[(4-Fluorophenyl)amino]pyrimidin-2-yl}amino)-N-propargyl-N-(1-methylpiperidin-4-yl)-benzenesulfonamide] gave a melting point of 187 °C.

For the compound `CCN(C1CCN(C)CC1)S(=O)(=O)c1ccc(Nc2nccc(Nc3ccc(F)cc3)n2)cc1` [Example 149, 4-({4-[(4-Fluorophenyl)amino]pyrimidin-2-yl}amino)-N-ethyl-N-(1-methylpiperidin-4-yl)benzene-sulfonamide], the melting point came out at 154 °C.

`CN(C1CCN(C2CC2)CC1)S(=O)(=O)c1ccc(Nc2nccc(Nc3ccc(F)cc3)n2)cc1` [Example 150, N-(1-Cyclopropylpiperidin-4-yl)-4-({4-[(4-fluorophenyl)amino]pyrimidin-2-yl}amino)-N-methyl-benzenesulfonamide]: the melting point fell in the range of 125 to 128 °C.

`CN1CCC(N(CC[C@H]2CCCN2)S(=O)(=O)c2ccc(Nc3nccc(Nc4ccc(F)cc4)n3)cc2)CC1` [Example 153, 4-({4-[(4-Fluorophenyl)amino]pyrimidin-2-yl}amino)-N-(1-methylpiperidin-4-yl)-N-{2-[(2R)-pyrrol-idin-2-yl]ethyl}benzenesulfonamide] showed a melting point of 85 °C.

For `COc1cc(Nc2ccnc(Nc3ccc(S(=O)(=O)N(CCN4CCCC4)C4CCN(C5CC5)CC4)cc3)n2)ccc1F` [Example 156], the melting point was found to be 139 °C.

Consider `CN1CCC(N(Cc2cccn2C)S(=O)(=O)c2ccc(Nc3nccc(Nc4ccc(F)cc4)n3)cc2)CC1` [Example 161, 4-({4-[(4-Fluorophenyl)amino]pyrimidin-2-yl}amino)-N-(1-methylpiperidin-4-yl)-N-[(1-methyl-1H-pyrrol-2-yl)methyl]benzenesulfonamide], for which the melting point was determined as 129 °C.

For `CN1CCC(N(C)S(=O)(=O)c2ccc(Nc3nccc(Nc4cc(F)c(F)c(F)c4)n3)cc2)CC1` [Example 162, 4-[4-(3,4,5-Trifluorophenylamino)pyrimidin-2-ylamino]-N-methyl-N-(1-methylpiperidin-4-yl)benzenesulfonamide], the melting point is 226.9 °C.

Consider `CN(C1CCN(CCS(C)(=O)=O)CC1)S(=O)(=O)c1ccc(Nc2nccc(Nc3ccc(F)c(F)c3)n2)cc1` [Example 163, 4-({4-[(3,4-Difluorophenyl)amino]pyrimidin-2-yl}amino)-N-methyl-N-{1-[2-(methyl-sulfonyl)ethyl]piperidin-4-yl}benzenesulfonamide], for which the melting point turned out to be 204 °C.

`CN(C1CCN(Cc2cccn2C)CC1)S(=O)(=O)c1ccc(Nc2nccc(Nc3ccc(F)c(F)c3)n2)cc1` [Example 164, 4-({4-[(3,4-Difluorophenyl)amino]pyrimidin-2-yl}amino)-N-methyl-N-{1-[(1-methyl-1H-pyrrol-2-yl)methyl]piperidin-4-yl)benzenesulfonamide] came in with a melting point of 149 to 152 °C.

`CN(C1CCN(Cc2csnn2)CC1)S(=O)(=O)c1ccc(Nc2nccc(Nc3ccc(F)c(F)c3)n2)cc1` [Example 165, 4-({4-[(3,4-Difluorophenyl)amino]pyrimidin-2-yl}amino)-N-methyl-N-(1-{[1-(1,2,3)thiadiazol-4-yl]methyl}piperidin-4-yl)benzenesulfonamide] yielded a melting point of 172 to 173 °C.

Turning to `Cc1cc(CN2CCC(N(C)S(=O)(=O)c3ccc(Nc4nccc(Nc5ccc(F)c(F)c5)n4)cc3)CC2)no1` [Example 166, 4-({4-[(3,4-Difluorophenyl)amino]pyrimidin-2-yl}amino)-N-methyl-N-{1-[(5-methylisoxazol-3-yl)methyl]piperidin-4-yl}benzenesulfonamide], the melting point fell in the range of 204 to 206 °C.

`CN(C1CCN(CC(C)(C)O)CC1)S(=O)(=O)c1ccc(Nc2nccc(Nc3ccc(F)c(F)c3)n2)cc1` [Example 167, 4-[4-(3,4-Difluorophenylamino)pyrimidin-2-ylamino]-N-[1-(2-hydroxy-2-methylpropyl)piperidin-4-yl]-N-methylbenzenesulfonamide] had a melting point of 234 to 235 °C.

Regarding `Cc1cc(Nc2ccnc(Nc3ccc(S(=O)(=O)N(Cc4ccco4)C4CCC(=O)CC4)cc3)n2)ccc1F` [Example 168], the melting point was 184 °C.

As for `Cc1cc(Nc2ccnc(Nc3ccc(S(=O)(=O)N(CC4CCCO4)C4CCC(=O)CC4)cc3)n2)ccc1F` (stereo not drawn) [Example 169], the melting point is 189 °C.
